{"source": "paper PMC9181795", "about": "“Ibuprofen Favors Binding of Amyloid-β Peptide to Its Depot, Serum Albumin” (International Journal of Molecular Sciences, 2022)", "key": {"Aβ40": {"system": "Aβ40", "assay": "ThT fluorescence assay, Aβ40 fibrillation", "format": "biochemical, human", "experimental": "(§1) ThT fluorescence emission measurements were carried out using a BioTek Synergy H1 multimode microplate reader and Greiner Bio-One non-binding microplates #781906 mainly as described in ref. [11]. […] ThT fluorescence was excited at 440 nm and emission at 485 nm was measured for 190 h every 30 min, with orbital shaking prior to each measurement. […] The lag time, tlag, is calculated as (t0 − 2/kapp)."}, "Aβ40(A21G)": {"system": "Aβ40(A21G)", "assay": "ThT fluorescence assay, Aβ40(A21G) fibrillation", "format": "biochemical, human", "conditions": "20 µM IBU, 20 µM Aβ40(A21G), no HSA, 30 °C, pH 7.4", "experimental": "as §1"}, "[1]": {"set-up": "method as in PMID 4202799", "conditions": "at therapeutic levels; ref [24]; cited from earlier work"}, "HSA": {"system": "HSA", "conditions": "cited from earlier work"}, "AD": {"system": "AD", "set-up": "method as in 2 sources, one per row (each row's own in cited_ref): ref [36],[37],[38] = [36]; PMID 11794217; doi:10.1056/NEJMoa010178; 36. In’T Veld B.A. Ruitenberg A. Hofman A. Launer L.J. Van Duijn C.M. Stijnen T. Breteler M.M. Stricker B.H. Nonsteroidal antiinflammatory drugs and the risk of Alzheimer’s disease N. Engl. J. Med. 20 || [37]; PMID 18458226; doi:10.1212/01.wnl.0000311269.57716.63; 37. Vlad S.C. Miller D.R. Kowall N.W. Felson D.T. Protective effects of NSAIDs on the development of Alzheimer disease Neurology 2008 70 1672 1677 10.1212/01.wnl.0000311269.57716.63 18458226 PMC275824 || [38]; PMID 25227314; doi:10.3233/JAD-141506; 38. Wang J. Tan L. Wang H.F. Tan C.C. Meng X.F. Wang C. Tang S.W. Yu J.T. Anti-inflammatory drugs and risk of Alzheimer’s disease: An updated systematic review and meta-analysis J. Alzheimers Dis. 201 ||| ref [36],[37],[73] = [36]; PMID 11794217; doi:10.1056/NEJMoa010178; 36. In’T Veld B.A. Ruitenberg A. Hofman A. Launer L.J. Van Duijn C.M. Stijnen T. Breteler M.M. Stricker B.H. Nonsteroidal antiinflammatory drugs and the risk of Alzheimer’s disease N. Engl. J. Med. 20 || [37]; PMID 18458226; doi:10.1212/01.wnl.0000311269.57716.63; 37. Vlad S.C. Miller D.R. Kowall N.W. Felson D.T. Protective effects of NSAIDs on the development of Alzheimer disease Neurology 2008 70 1672 1677 10.1212/01.wnl.0000311269.57716.63 18458226 PMC275824 || [73]; PMID 33134914; doi:10.1093/braincomms/fcaa109; 73. Rivers-Auty J. Mather A.E. Peters R. Lawrence C.B. Brough D. Anti-inflammatories in Alzheimer’s disease—potential therapy or spurious correlate? Brain Commun. 2020 2 fcaa109 10.1093/braincomms/fca", "conditions": "cited from earlier work"}, "[2]": {"conditions": "20 µM IBU, no HSA, 20 µM Aβ40, 30 °C, Boltzmann sigmoid function, n = 3–5"}}, "note": "“Also recorded” adds a separate entry of the source.", "data": [{"smiles": "CC(C)Cc1ccc(C(C)C(=O)O)cc1", "note": "(centres unmarked) [IBU, 2-[4-(2-methylpropyl)phenyl]propanoic acid]", "values": [{"measurement": "effect of IBU on suppression of Aβ40 fibrillation by HSA", "setting": "Aβ40; 20 µM IBU + 2 µM HSA, 20 µM Aβ40, 30 °C, pH 7.4", "value": "strengthens the suppression of Aβ40 fibrillation by 2 µM HSA; also recorded: favors the suppression of fibrillation of 20 µM Aβ40 by 2 µM HSA"}, {"measurement": "decline in tlag in response to IBU", "setting": "Aβ40; 20 µM IBU in presence of 2 µM HSA, 20 µM Aβ40, 30 °C, n = 3–5", "value": 21, "unit": "%"}, {"measurement": "minor opposite effects of IBU on lag phase and rate constant", "setting": "Aβ40; 20 µM IBU, 2 µM HSA, 20 µM Aβ40", "value": "shortening of the lag phase and decrease in the apparent rate constant of the process"}, {"measurement": "suppression of fibrillation by IBU alone", "setting": "Aβ40; 20 µM IBU, 20 µM Aβ40, no HSA, 30 °C, pH 7.4", "value": "does not induce statistically significant suppression of the fibrillation process"}, {"measurement": "effect on apparent rate constant kapp", "setting": "Aβ40; [2]", "value": "did not affect the kapp value"}, {"measurement": "factor of shortening of lag phase (tlag)", "setting": "Aβ40; [2]", "value": 2}, {"measurement": "decrease in apparent rate constant kapp", "setting": "Aβ40; combination of 2 µM HSA and 20 µM IBU, 20 µM Aβ40, 30 °C, n = 3–5", "value": 17, "unit": "%"}, {"measurement": "effect of IBU on HSA affinity to Aβ compared with serotonin", "setting": "HSA–Aβ interaction", "value": "lower than the effect for serotonin"}, {"measurement": "suppression of fibrillation by IBU alone", "setting": "Aβ40(A21G)", "value": "does not induce statistically significant suppression of the fibrillation process"}, {"measurement": "bound to blood plasma proteins", "setting": "[1]", "value": 99, "unit": "%"}, {"measurement": "effect of IBU on HSA affinity to heme", "setting": "HSA; ref [74],[75]", "value": "allosterically affect HSA affinity to heme"}, {"measurement": "effect of IBU binding on HSA affinity to lorazepam", "setting": "HSA; ref [76]", "value": "enhanced its affinity to lorazepam"}, {"measurement": "rates of AD among people taking IBU for chronic treatment of inflammatory conditions", "setting": "AD; ref [36],[37],[73]", "value": "lower rates of AD"}, {"measurement": "AD protection with long-term use of nonsteroidal anti-inflammatory drugs, including IBU", "setting": "AD; retrospective studies, ref [36],[37],[38]", "value": "protective against AD"}]}]}
